System: OsACCase gene
Experiment: Base editing (pZRH-PBE + individual sgRNAs) of OsACCase functional domain in transgenic M0 rice plants
Type: in vivo
Conditions: for Frequency of indel (%) / Frequency of substitution (%) / No. of WT / No. of indel / No. of substitution: transgenic M0 plants; for No. of WT / No. of indel / No. of substitution: per sgRNA target
Source text: For individual cloning, the following method is used. APOBEC1, partial nCas9 and UGI sequences (SEQ ID NO: 129) without BsaI were synthesized commercially (GenScript, Nanjing, China) and cloned into the pUC57 (SEQ ID NO: 130) as intermediate vector. […] The full length APOBEC1-nCas9-UGI was excised using XmaJI and SacI, then was subcloned into pHUE411 that had been digested using the same two enzymes. The resultant vector pZRH-PBE (SEQ ID NO: 133) was used to construct sgRNA expression plasmids using restriction enzyme site BsaI.

[1] = edited allele with the substitution of the same table line

Row | Substance | Frequency of indel (%) | Frequency of substitution (%) | No. of WT | No. of indel | No. of substitution | No. of alleles (unedited target site sequence) | No. of alleles [1] | No. of alleles (edited allele with the substitution of the same table line, edited allele (SEQ ID NO: 77)) | No. of alleles (edited allele with the substitution of the same table line, edited allele (SEQ ID NO: 78)) | No. of alleles (edited allele with the substitution of the same table line, edited allele (SEQ ID NO: 86)) | No. of alleles (edited allele with the substitution of the same table line, edited allele (SEQ ID NO: 87))
1 | R2: sgRNA in pZRH-PBE; OsACCase target site CCGGTGCATACAGCGTCTTGACC (SEQ ID NO: 8) (expressed or natural sequence; target site or template, no part of the molecule) | 0% | 80% | 5 | 0 | 20 | 6 | – | – | – | – | –
2 | R4: sgRNA in pZRH-PBE; OsACCase target site TCTGCACTGAACAAGCTTCTTGG (SEQ ID NO: 11) (expressed or natural sequence; target site or template, no part of the molecule) | 3.1% | 31.3% | 24 | 2 | 6 | 6 | – | – | – | – | –
3 | R5: sgRNA in pZRH-PBE; OsACCase target site CCACATGCAGTTGGGTGGTCCCA (SEQ ID NO: 15) (expressed or natural sequence; target site or template, no part of the molecule) | 0.0% | 65.4% | 18 | 0 | 34 | 12 | – | – | – | – | –
4 | R6: sgRNA in pZRH-PBE; OsACCase target site CCATCTTACTGTTTCAGATGACC (SEQ ID NO: 22) (expressed or natural sequence; target site or template, no part of the molecule) | 14.3% | 19% | 14 | 3 | 4 | 2 | – | – | – | – | –
5 | R7: sgRNA in pZRH-PBE; OsACCase target site CCCTGCTGACCCTGGTCAGCTTG (SEQ ID NO: 27) (expressed or natural sequence; target site or template, no part of the molecule) | 5.9% | 58.8% | 6 | 1 | 10 | 4 | 1 | – | – | – | –
6 | R8: sgRNA in pZRH-PBE; OsACCase target site TTCCTCGTGCTGGACAAGTGTGG (SEQ ID NO: 32) (expressed or natural sequence; target site or template, no part of the molecule) | 10.5% | 59.6% | 17 | 6 | 34 | 9 | – | – | – | – | –
7 | R17: sgRNA in pZRH-PBE; OsACCase target site GGAGCTTATCTTGCTCGACTTGG (SEQ ID NO: 64) (expressed or natural sequence; target site or template, no part of the molecule) | 4.8% | 42.9% | 22 | 2 | 18 | 16 | – | – | – | – | –
8 | R18: sgRNA in pZRH-PBE; OsACCase target site CCGCAAGGGTTAATTGAGATCAA (SEQ ID NO: 68) (expressed or natural sequence; target site or template, no part of the molecule) | 13.0% | 60.9% | 6 | 3 | 14 | 7 | – | – | – | – | –
9 | R19: sgRNA in pZRH-PBE; OsACCase target site TGCTTATTCTAGGGCATATAAGG (SEQ ID NO: 71) (expressed or natural sequence; target site or template, no part of the molecule) | 0.0% | 6.9% | 27 | 0 | 2 | 1 | 1 | – | – | – | –
10 | R20: sgRNA in pZRH-PBE; OsACCase target site TTTACACTTACATTTGTGACTGG (SEQ ID NO: 73) (expressed or natural sequence; the letters are possibly those of the target site) | 0.0% | 16.7% | 11 | 0 | 2 | 2 | 1 | – | – | – | –
11 | R21: sgRNA in pZRH-PBE; OsACCase target site AGCTCCCACATGCAGTTGGGTGG (SEQ ID NO: 76) (expressed or natural sequence; target site or template, no part of the molecule) | 9.5% | 23.8% | 14 | 2 | 5 | 4 | – | 2 | 4 | – | –
12 | R22: sgRNA in pZRH-PBE; OsACCase target site ACTGTTTCAGATGACCTTGAAGG (SEQ ID NO: 79) (expressed or natural sequence; the letters are possibly those of the target site) | 0.0% | 18.8% | 13 | 0 | 3 | 2 | 4 | – | – | – | –
13 | R23: sgRNA in pZRH-PBE; OsACCase target site GCGTTTCTAATATATTGAGGTGG (SEQ ID NO: 81) (expressed or natural sequence; target site or template, no part of the molecule) | 0.0% | 22.2% | 21 | 0 | 6 | 3 | 9 | – | – | – | –
14 | R24: sgRNA in pZRH-PBE; OsACCase target site TATGTTCCTGCCTACATTGGTGG (SEQ ID NO: 83) (expressed or natural sequence; target site or template, no part of the molecule) | 14.3% | 9.5% | 16 | 3 | 2 | 2 | 2 | – | – | – | –
15 | R25: sgRNA in pZRH-PBE; OsACCase target site ACTTCCAGTAACAACACCGTTGG (SEQ ID NO: 85) (expressed or natural sequence; the letters are possibly those of the target site) | 0.0% | 40.0% | 3 | 0 | 2 | 1 | – | – | – | 2 | 1
16 | R26: sgRNA in pZRH-PBE; OsACCase target site AACAACACCGTTGGACCCACCGG (SEQ ID NO: 88) (expressed or natural sequence; target site or template, no part of the molecule) | 0.0% | 71.4% | 2 | 0 | 5 | 4 | 4 | – | – | – | –
17 | R27: sgRNA in pZRH-PBE; OsACCase target site GAACTCGTGTGATCCTCGAGCGG (SEQ ID NO: 90) (chemistry not fully specified; the letters are possibly those of the target site) | 0.0% | 15.4% | 11 | 0 | 2 | 1 | 3 | – | – | – | –
18 | R28: sgRNA in pZRH-PBE; OsACCase target site GTTACTGGCAGAGCAAAGCTTGG (SEQ ID NO: 92) (expressed or natural sequence; target site or template, no part of the molecule) | 14.3% | 42.9% | 3 | 1 | 3 | 0 | 6 | – | – | – | –
19 | R29: sgRNA in pZRH-PBE; OsACCase target site CAAACTATCCCTGCTGACCCTGG (SEQ ID NO: 94) (expressed or natural sequence; target site or template, no part of the molecule) | 12.0% | 60.0% | 7 | 3 | 15 | 8 | – | – | – | – | –
20 | R30: sgRNA in pZRH-PBE; OsACCase target site ATGGCTGCAGAGCTACGAGGAGG (SEQ ID NO: 99) (expressed or natural sequence; target site or template, no part of the molecule) | 12.5% | 56.3% | 5 | 2 | 9 | 5 | – | – | – | – | –

Source: patent US12612622B2, “Targeted mutagenesis using base editors” (Qi Biodesign Biotechnology Company Limited, priority 2018, dated 2026)
